# Read-outs that look alike come from different tables or passages of the source.
# How the values were obtained:
# U937 cells = settings: cited from earlier work
# [1] = tested on: nitric oxide (NO) production in LPS-stimulated RAW 264.7 cells; experiment: NO (nitrite, Griess) production in LPS-stimulated RAW 264.7 cells; format: cell-based, murine; settings: for inhibitory activity on NO production: highest evaluated concentration (60 µg/mL)
# Protocol: (§1) RAW 264.7 cells (murine macrophage cell line) were purchased from ATCC (Georgetown, Washington, DC, USA ) and cultured in Advanced DMEM/F12 medium (Gibco, Waltham, MA USA) supplemented with 1% GlutaMAX (Gibco) and 3.5% inactivated FBS (Gibco), without antibiotics at 37 °C in 5% CO2.
# RAW 264.7 cells were seeding (2 × 10^4 cells in 200 µL) and incubated for 24 h, then, were treated with various concentrations of the investigated samples, indomethacin (30 µg/mL) or DMSO (0.4%, v/v) for 2 h followed by stimulation with 1 µg/mL of LPS (from E. coli purchased from Sigma Aldrich, St. Louis, MO, USA) for 21 h. The nitrite is a stable metabolite of the NO and its concentration was calculated with Griess reagent and the aid of a standard curve of NaNO2. Cell-free supernatants (50 µL) were collected and incubated for 10 min with the Griess reagent (50 µL of 0.1% N-(1-napthyl)-ethylenediamine dihydrochloride and 50 µL of 1% sulphanilamide both in 2.5% phosphoric acid) at room temperature and absorbance at 540 nm was measured using a microplate reader.
# HeLa = experiment: Antiproliferative MTS assay, HeLa; format: cell-based; settings: Homo sapiens, 72 h
# Protocol: (§2) PC3 (prostate), HeLa (cervical) and Hep3B and HepG2 (hepatocellular) human cancer cell lines were purchased from ATCC (Manassas, VA, USA). We also included immortalized human hepatocyte cell line (IHH) as a control of non-cancerous cells. PC3 was grown in RPMI-1640 medium (Sigma Aldrich, St. Louis, MO, USA), while Hep3B, HepG2, HeLa and IHH in DMEM medium (Invitrogen, Thermo Fisher Scientific, Waltham, MA, USA) supplemented with 10% SFB and 2 mM glutamine, all cultures were incubated at 37 °C in 5% CO2.
# (§3) Cells (4 × 10^3 cells/well) were seeding in 96-well plates. The cells were treated with the investigated samples (at 0.01, 0.1, 1, 10 and 100 µg/mL) and incubated at 37 °C in 5% CO2 for 72 h. PTX was used as positive control. The number of viable cells in proliferation was checked by MTS assay, following the manufacturer’s instructions. The absorbance was measured at 450 nm using an automated ELISA reader (Promega, Madison, WI, USA).
# PC3 = experiment: Antiproliferative MTS assay, PC3; format: cell-based; settings: Homo sapiens, PC-3, 72 h
# Protocol: as §2, §3
# HepG2 = experiment: Antiproliferative MTS assay, HepG2; format: cell-based; settings: Homo sapiens, 72 h
# Protocol: as §2, §3
# Hep3B = experiment: Antiproliferative MTS assay, Hep3B; format: cell-based; settings: Homo sapiens, 72 h
# Protocol: as §2, §3
# [2] = tested on: immortalized human hepatocyte cell line (IHH); experiment: Antiproliferative MTS assay, IHH non-cancerous cells; format: cell-based; settings: 72 h
# Protocol: as §2, §3
# RAW 264.7 cells = experiment: Cell viability of RAW 264.7 cells (MTS); format: cell-based, murine; settings: at 30 and 60 µg/mL
# Protocol: as §1
# The cell viability was determined by using MTS from Promega. The cells (1 × 10^4 cells per well) were seeding in 96-well plates in 100 µL of medium and were incubated for 24 h. Then, the cells were treated with various concentrations of the investigated samples, positive control (etoposide, 30 µg/mL) or vehicle (0.4% DMSO in culture medium) and incubated for 24 h. Subsequently, 20 µL of MTS was added at 20 h of treatment for 4 h, after that, the absorbance at 490 nm was measured using a microplate reader (Biotek, Winooski, VT, USA). The absorbance of control cells (untreated) was taken as 100% viability. The concentration of DMSO together with the treatments, in the culture medium was ≤ 0.4%, v/v.
# Hep3B cells [3] = experiment: Cell cycle analysis by flow cytometry, Hep3B; format: cell-based, human; settings: treatment at IC50, 72 h, control 0.0%
# Protocol: (§4) PC3, Hep3B, HepG2 and HeLa cells (1.25 × 10^5 cells/well) were seed in 6-well plates and allowed to attach overnight at 37 °C in 5% CO2. Exponential growing cells were treated with Compound 1 to the IC50 values for 72 h. PTX (10 nM) was included as a positive control of the G2/M phase arrest. Cells from each treatment were trypsinized and collected into single cell suspensions, centrifuged, and fixed in cold ethanol (70%) overnight at −20 °C. The cells were then treated with 0.01 M RNase (Sigma Aldrich, St. Louis, MO, USA) and stained with 7.5 µg/mL PI (Invitrogen) for 30 min in the dark. The percentage of cells in sub-G1, G1, S, and G2/M phases was analyzed with a flow cytometer (Becton Dickinson, FACS Calibur; Beckman Coulter, Inc., Brea, CA, USA) using 10,000 cells for each sample. Data obtained from the flow cytometer were analyzed using the FlowJo Software (Tree Star, Inc., Ashland, OR, USA).
# HepG2 cells = experiment: Cell cycle analysis by flow cytometry, HepG2; format: cell-based, human; settings: HepG2, treatment at IC50, 72 h; control 1.5%
# Protocol: as §4
# PC3 cells = experiment: Cell cycle analysis by flow cytometry, PC3; format: cell-based, human; settings: PC3, treatment at IC50, 72 h; control 0.9%
# Protocol: as §4
# Hep3B cells [4] = experiment: Annexin V-FITC/PI staining, flow cytometry; format: cell-based, human; settings: Compound 1 21.3 µM, PTX 20 nM, 72 h
# Protocol: Apoptosis was evaluated using Annexin V Apoptosis Detection Kit FITC (Thermo Fisher Scientific, CA, USA). Hep3B cells (2.5 × 10^5 cells) were treated with 1 (21.31 µM). PTX (20 nM) was used as positive control of apoptosis. After 72 h, the cells were harvested and washed twice with ice-cold PBS (0.01 M, pH 7.2). After 5 min of centrifuging at 200 g. Annexin V-FITC/PI staining were performed according to manufacturer’s instruction. Cell apoptosis was analyzed on flow cytometer (10,000 cells for each sample). Data obtained from the flow cytometer were analyzed using the FlowJo Software.
# Hep3B cells [5] = experiment: Cell morphology, acridine orange/ethidium bromide staining; format: cell-based, human; settings: 21.3 µM (12 µg/mL), 72 h
# Protocol: The morphological changes of Hep3B cells exposed to Compound 1 were evaluated using acridine orange (AO) and ethidium bromide (EB) staining. In brief, Hep3B cells (2 × 10^4 cells per well) were seeding in 24-well plates and exposed with Compound 1 at 21.31 µM for 72 h. After 72 h of treatment cells were exposed to a solution of 100 µg/mL AO and 100 µg/mL EB, according to reported procedures. For controls, the cells were grown 71 h before being treated 30 min with H2O2 (positive control of apoptosis) or being boiling in water at 95 °C for 10 s (positive control of necrosis). Then, the cells were observed using a fluorescence microscope.
# Bcl-2 = experiment: RT-PCR, Bcl-2 mRNA in Hep3B cells; format: cell-based, human; settings: 21.3 µM, 72 h, vs non-treated control
# Protocol: (§5) RNA was quantified using NanoDrop ND-1000 (Thermo Scientific, Waltham, MA, USA) and the RNA content was normalized. The RT-PCR was performed using a One-Step RT-PCR Kit with Thermo-Start Taq (Thermo Scientific, Waltham, MA, USA) following the manufacturer's instructions. PCR was performed with the following primers sequences: Bcl-2 ([NT]), Bax ([NT] ([NT]). Sequencing was performed at the Instituto de Biotecnología of Universidad Nacional Autónoma de México.
# Bax = experiment: RT-PCR, Bax mRNA in Hep3B cells; format: cell-based, human; settings: 21.3 µM, 72 h, vs non-treated control
# Protocol: as §5
# caspase 3/7 = experiment: Caspase-Glo 3/7 assay in Hep3B cells; format: cell-based, human; settings: 21.3 µM (12 µg/mL), 72 h
# Protocol: Hep3B cells (8 × 10^3 cells per well) were plated on 96-well plates and treated with 1 at 21.31 µM for 72 h. After treatment, the caspase 3/7 activity was determined using the luminescent Caspase-Glo® 3/7 Assay (Promega, Madison, WI, USA) following the manufacturer’s instructions. The results were represented as relative units of luminescence.
# [6] = tested on: TPA-induced acute edema in mice ear; experiment: TPA-induced ear edema in mice; format: in vivo; settings: 1 mg/ear topical, male ICR mice, 6 h after TPA
# Protocol: Edema in mice ear was induced with TPA purchased from Sigma Aldrich (St. Louis, MO, USA), following the method previously described. All animals were treated in accordance with Official Mexican Rule of Technical Specifications for the Production, Care and Use of Laboratory Animals (NOM-062-ZOO-1999 Guidelines) and international ethical guidelines for the care and use of experimental animals. The experimental protocol was authorized by the local Health Research Committee (Instituto Mexicano del Seguro Social (IMSS)). The experiments were carried out with male ICR mice weighing between 25–30 g (five animals per treatment). […] The treatments were applied topically on right ear and vehicle on left ear, thereafter, the edema was induced by administration topically of TPA (2.5 µg) over both ears. Six hours after administration of TPA, the animals were sacrificed by cervical dislocation. Circular sections 6 mm in diameter were taken from both the treated and non-treated ears and weighed to determine the inflammation.
# [7] = tested on: pro-inflammatory cytokines; set-up: method as in PMID 27921103; settings: 40 µM; via heme oxygenase-1 induction; cited from earlier work
# [8] = 6 µM, mediated by caspase-3-like (CPP32-like) activation
Compound,IC50 (HeLa),IC50 (PC3),IC50 (HepG2),IC50 (Hep3B),IC50 [2],also measured
Dolichyl phosphate,,,,,,"apoptosis in U937 cells (U937 cells; 8 µg/mL, by the MAP kinase cascade): induced apoptosis"
"CC(C)=CCC/C(C)=C/CC/C(C)=C/CC/C(C)=C/CC/C(C)=C\CC/C(C)=C\CC/C(C)=C\CC/C(C)=C\CC/C(C)=C\CC/C(C)=C\CC/C(C)=C\CC/C(C)=C\CC/C(C)=C\CO [Compound 3, (Z9,E3,ω)-tridecaprenol]",84.1 ± 8.9 µM,76.4 ± 6.6 µM,74.2 ± 5.5 µM,69.7 ± 5.5 µM,74.1 ± 5.5 µM,inhibitory activity on NO production [1]: negligible inhibitory activity
"CC(C)=CCC/C(C)=C/CC/C(C)=C/CC/C(C)=C/C[C@@H](O)/C=C(\C)CC/C=C(\C)CC/C=C(\C)CCC=C(C)C [Compound 1, (6E,10E,14E,18E,22E,26E)-2,6,10,14,19,23,27,31-octamethyldotriaconta-2,6,10,14,18,22,26,30-octaen-16R-ol]",37.3 ± 3.5 µM,32 ± 4.4 µM,26.6 ± 3.5 µM,21.3 ± 3.5 µM,88.8 ± 8.9 µM,"inhibition at 25.6 µM ([1]; Mus musculus, RAW264.7, 14.4 µg/mL (25.6 µM)): 28.6 ± 1.81%; effect on cell viability of RAW 264.7 cells (RAW 264.7 cells): decreased the cell viability; population in sub-G1 phase (Hep3B cells [3]): 18.5%; population in sub-G1 phase (HepG2 cells): 14.8%; population in sub-G1 phase (PC3 cells): 19.0%; percentage of early phase apoptosis cells (Hep3B cells [4]): 22.6%; morphological changes (AO/EB fluorescence microscopy) (Hep3B cells [5]): apoptotic bodies formation and clear condensation of chromatin; Bcl-2 transcripts (Bcl-2): inhibition of Bcl-2; Bax transcripts (Bax): increased Bax transcripts; Bax/Bcl-2 ratio (Bax): increasing the Bax/Bcl-2 ratio; caspase 3/7 activation (caspase 3/7): statistically significant increase in caspase 3/7 activation"
"COc1ccc2c(c1)c(CC(=O)O)c(C)n2C(=O)c1ccc(Cl)cc1 [indomethacin, reference compound]",,,,,,"edema inhibition [6]: 87.6 ± 0.4%; inhibition at 30 µg/mL ([1]; Mus musculus, RAW264.7, 30 µg/mL): 54.6 ± 8.9%"
"CC(=O)O[C@H]1C(=O)[C@@]2(C)[C@H]([C@H](OC(=O)c3ccccc3)[C@]3(O)C[C@H](OC(=O)[C@H](O)[C@@H](NC(=O)c4ccccc4)c4ccccc4)C(C)=C1C3(C)C)[C@]1(OC(C)=O)CO[C@@H]1C[C@@H]2O [Paclitaxel, reference compound]",0.01 ± 0.002 µM,0.0154 ± 0.0035 µM,0.0065 ± 0.0007 µM,0.008 ± 0.001 µM,0.08 ± 0.005 µM,
Dihydroheptaprenyl phosphate,,,,,,apoptosis in U937 cells (U937 cells; [8]): induced apoptosis
"CC(C)=CCC/C(C)=C/CC/C(C)=C/CC/C(C)=C/CC/C(C)=C/CC/C(C)=C/CC/C(C)=C/CC/C(C)=C\CC/C(C)=C/CCC(C)CCOP(=O)(O)O (stereo not drawn) [dihydrodecaprenyl phosphates, dihydrodecaprenyl phosphate]",,,,,,apoptosis in U937 cells (U937 cells; [8]): induced apoptosis
"CC(C)=CCC/C(C)=C/CC/C(C)=C/CC/C(C)=C/CC/C(C)=C\CC/C(C)=C\CC/C(C)=C\CC/C(C)=C\CC/C(C)=C\CC/C(C)=C\CC/C(C)=C\CC/C(C)=C\CO [Compound 2, (Z8,E3,ω)-dodecaprenol]",95.7 ± 12 µM,74.2 ± 5 µM,76.6 ± 6 µM,50.3 ± 5.9 µM,76.6 ± 6 µM,inhibitory activity on NO production [1]: negligible inhibitory activity
CC(C)=CCC/C(C)=C/CC/C(C)=C/CC/C(C)=C/CC/C(C)=C/CC/C(C)=C/CC/C(C)=C/CC/C(C)=C/CC/C(C)=C/CO [solanesol],,,,,,production of pro-inflammatory cytokines [7]: suppresses the production of pro-inflammatory cytokines

# — PMC6651038, “16-Hydroxy-Lycopersene, a Polyisoprenoid Alcohol Isolated from Tournefortia hirsutissima, Inhibits Nitric Oxide Production in RAW 264.7 Cells and Induces Apoptosis in Hep3B Cells” (Molecules, 2019)
